Test results as given in patent US20040198789A1, “Lercanidipine/ARB/diuretic therapeutic combinations” (Recordati Ireland Limited, priority 2003, published 2004).
“And” between values parts separate entries of the source, which are not always exact repeats. Equal values may be shown once.

Experiments:
isolated rat aorta = details: in vitro; even after repeated wash-out during 6 hours; cited from earlier work
[1] = test system: reperfusion-induced hypertension in uninephrectomized anesthetized rats; test: Model of acute angiotensin-mediated renal hypertension in anesthetized rats (SBP, DBP, HR); type: in vivo, rat
Description: Male Sprague-Dawley rats, weighing 250-300 g, were anaesthetized with pentobarbital sodium (35 mg/kg, i.p.) and placed on a thermic blanket. The temperature was maintained at 37° C. with a thermoregulator via a rectal probe. The animals were tracheotomized to facilitate spontaneous breathing. A polyethylene catheter was placed in the left jugular vein to allow for infusion of pentobarbital sodium to maintain anesthesia. The left femoral vein and artery were cannulated with polyethylene catheters to allow drugs administration and to monitor blood pressure, respectively.
Animals then underwent a left nephrectomy by excising the left kidney via a flank incision. The right kidney and renal vein, artery and ureter were then exposed via a right retroperitoneal incision, under a dissecting microscope. Silk threads were placed around both vessels and ureter. The cavity was then covered with Vaseline oil.
After 30-60 minutes of basal recordings of arterial blood pressure and heart rate the threads around the renal vessels and ureter were tied close to the renal hilum to induce complete renal ischemia of the right kidney. After 2 hours of ischemia, the threads were removed to allow renal reperfusion and urine output.
For irbesartan experiments and comparisons, control (vehicle) or drug (irbesartan (100 μg/kg), lercanidipine (7.5 μg/kg), or both lercanidipine (7.5 μg/kg) and irbesartan (100 μg/kg)) were administered intravenously at 5 min after reperfusion was begun.
Results were expressed as mean values ±S.E. (in the tables) and in percent change observed.
To evaluate the effects of drugs administration on blood pressure and heart rate within each group, two-way ANOVA and Dunnet's test were used (“within treatment”). To evaluate the statistical differences among the treatment groups, data are analyzed using a three-way ANOVA (analysis of variance) with repeated measures on factor time and pre-planned multiple comparisons. The analysis was performed using, for each treatment, delta values (log transformation). […] (“between treatments”).

[2] = cited from earlier work
[3] = following oral administration; cited from earlier work
[4] = test system: reperfusion-induced hypertension in uninephrectomized anesthetized rats; test: Model of acute angiotensin-mediated renal hypertension in anesthetized rats (SBP, DBP, HR); type: in vivo, rat; remark: listed apart in the source
[5] = between treatments, three-way ANOVA on delta values, lercanidipine 7.5 μg/kg, irbesartan 100 μg/kg i.v.
[6] = between treatments, three-way ANOVA on delta values, lercanidipine 7.5 μg/kg, olmesartan free acid 10 μg/kg i.v.
[7] = between treatments, three-way ANOVA on delta values, lercanidipine 10 μg/kg, valsartan 30 μg/kg i.v.
[8] = lercanidipine 7.5 μg/kg i.v., n=6, time 0 min, basal, pre-drug
[9] = lercanidipine 7.5 μg/kg i.v., n=6, time 120 min, end of ischemia, pre-drug
[10] = lercanidipine 7.5 μg/kg i.v., n=6, time 130 min, 5 min after drug
[11] = lercanidipine 7.5 μg/kg i.v., n=6, time 135 min, 10 min after drug
[12] = lercanidipine 7.5 μg/kg i.v., n=6, time 150 min, 25 min after drug
[13] = lercanidipine 7.5 μg/kg i.v., n=6, time 165 min, 40 min after drug
[14] = lercanidipine 7.5 μg/kg i.v., n=6, time 180 min, 55 min after drug
[15] = lercanidipine 7.5 μg/kg i.v., n=6, time […], 5 min reperfusion, pre-drug
[16] = lercanidipine 10 μg/kg i.v., n=5, time 0 min, basal, pre-drug
[17] = lercanidipine 10 μg/kg i.v., n=5, time 120 min, end of ischemia, pre-drug
[18] = lercanidipine 10 μg/kg i.v., n=5, time 130 min, 5 min after drug
[19] = lercanidipine 10 μg/kg i.v., n=5, time 135 min, 10 min after drug
[20] = lercanidipine 10 μg/kg i.v., n=5, time 150 min, 25 min after drug
[21] = lercanidipine 10 μg/kg i.v., n=5, time 165 min, 40 min after drug
[22] = lercanidipine 10 μg/kg i.v., n=5, time 180 min, 55 min after drug
[23] = lercanidipine 10 μg/kg i.v., n=5, time […], 5 min reperfusion, pre-drug
[24] = within treatment vs […], lercanidipine 10 μg/kg or valsartan 30 μg/kg i.v.

In the case of `COC(=O)C1=C(C)NC(C)=C(C(=O)OC(C)(C)CN(C)CCC(c2ccccc2)c2ccccc2)C1c1cccc([N+](=O)[O-])c1` (stereo not drawn) [lercanidipine, methyl 1,1,N-trimethyl-N-(3,3-diphenylpropyl)-2-aminoethyl 1,4-dihydro-2,6-dimethyl-4-(3-nitrophenyl)pyridine-3,5-dicarboxylate], the “isolated rat aorta response to high K+” value (isolated rat aorta) is given as “attenuated”, the “Diastolic blood pressure: general differences among groups: p vs Irbesartan” value [1, 5] is given as “ns” and the “Diastolic blood pressure: general differences among groups: p vs Vehicle” value [1, 5] is given as “p < 0.05”. The “Heart rate differences among groups: p vs Irbesartan” value [1, 5] was “p < 0.001”, the “Heart rate differences among groups: p vs Vehicle” value [1, 5] was “p < 0.01” and the “Systolic blood pressure differences among groups: p vs Irbesartan” value [1, 5] was “ns”. The “Systolic blood pressure differences among groups: p vs Vehicle” value [1, 5] was “ns”, the “Diastolic blood pressure differences among treatment groups: p vs Olmesartan” value [1, 6] was “ns” and the “Diastolic blood pressure differences among treatment groups: p vs Vehicle” value [1, 6] was “p < 0.05”. For the same compound, the “Heart rate differences among treatment groups: p vs Olmesartan” value [1, 6] was “p < 0.001”, the “Heart rate differences among treatment groups: p vs Vehicle” value [1, 6] was “p < 0.01” and the “Systolic blood pressure differences among treatment groups: p vs Olmesartan” value [1, 6] was “ns”. The “Systolic blood pressure differences among treatment groups: p vs Vehicle” value [1, 6] was “ns”, the “Diastolic blood pressure: general differences among groups: p vs Valsartan” value [1, 7] was “ns” and the “Heart rate: general differences among groups: p vs Valsartan” value [1, 7] was “p < 0.01”. The “Systolic blood pressure: general differences among groups: p vs Valsartan” value [1, 7] was “ns”, the DBP [1, 8] was 75.7 ± 1.7 mmHg and the HR [1, 8] was 383.3 ± 12.0 beats/min. For the same compound, the SBP [1, 8] was 120.7 ± 3.5 mmHg, the DBP [1, 9] was 63.3 ± 2.9 mmHg and the HR [1, 9] was 381.7 ± 7.5 beats/min. The SBP [1, 9] was 105.2 ± 5.3 mmHg, the HR [1, 10] was 434.2 ± 15.3 b beats/min and the SBP [1, 10] was 136.7 ± 7.4 mmHg. For the same compound, the HR [1, 11] was 426.7 ± 14.3 b beats/min, the SBP [1, 11] was 140.7 ± 7.1 mmHg and 140.7 ± 7.1b mmHg and the HR [1, 12] was 411.7 ± 12.8 b beats/min. The SBP [1, 12] was 143.2 ± 7.2 mmHg, the HR [1, 13] was 411.7 ± 15.6 b beats/min and the SBP [1, 13] was 144.5 ± 9.1 mmHg. The HR [1, 14] was 410.0 ± 18.3 b beats/min, the SBP [1, 14] was 136.8 ± 8.4 mmHg and 136.8 ± 8.4b mmHg and the DBP [1, 15] was 117.2 ± 4.4 mmHg. For the same compound, the HR [1, 15] was 346.7 ± 8.4 beats/min, the SBP [1, 15] was 160.7 ± 8.5 mmHg and the “effect on heart rate (in words)” value ([1]; lercanidipine 7.5 μg/kg, irbesartan 100 μg/kg i.v., alone or together) was “increase in heart rate”. For the same compound, the “effect on blood pressure (in words)” value ([1]; lercanidipine 7.5 μg/kg, irbesartan 100 μg/kg i.v., alone or together, 5 min after reperfusion) was “statistically significant decrease in both systolic and diastolic blood pressure”, the “effect on heart rate (in words)” value ([1]; lercanidipine 7.5 μg/kg, olmesartan free acid 10 μg/kg i.v., alone or together) was “increase in heart rate” and the DBP [1, 16] was 69.8 ± 4.1 mmHg. The HR [1, 16] was 350.0 ± 3.2 beats/min, the SBP [1, 16] was 133.8 ± 6.1 mmHg and the DBP [1, 17] was 64.6 ± 4.5 mmHg. The HR [1, 17] was 350.0 ± 3.5 beats/min, the SBP [1, 17] was 134.8 ± 6.2 mmHg and the DBP [1, 18] was 77.4 ± 4.1 b mmHg. For the same compound, the HR [1, 18] was 434.0 ± 27.9 b beats/min, the SBP [1, 18] was 149.2 ± 5.4 mmHg and the DBP [1, 19] was 77.8 ± 3.2 b mmHg. The HR [1, 19] was 438.0 ± 22.2 b beats/min, the SBP [1, 19] was 145.4 ± 5.0 b mmHg and the DBP [1, 20] was 76.4 ± 7.2 b mmHg. It also gave an HR [1, 20] of 425.0 ± 14.7 b beats/min, an SBP [1, 20] of 143.8 ± 5.5 b mmHg and a DBP [1, 21] of 78.4 ± 8.4 b mmHg. The HR [1, 21] was 423.0 ± 15.1 b beats/min, the SBP [1, 21] was 138.2 ± 8.6 b mmHg and the DBP [1, 22] was 76.2 ± 7.3 b mmHg. It also gave an HR [1, 22] of 421.0 ± 14.7 b beats/min, an SBP [1, 22] of 138.8 ± 4.9 b mmHg and a DBP [1, 23] of 105.6 ± 5.0 mmHg. The HR [1, 23] was 345.0 ± 5.5 beats/min, the SBP [1, 23] was 167.6 ± 4.0 mmHg and the “time of statistically significant decrease in diastolic blood pressure after administration” value ([1]; within treatment vs […], lercanidipine 7.5 μg/kg or olmesartan free acid 10 μg/kg i.v.) was 5 to 55 min. The “time of statistically significant decrease in systolic blood pressure after administration” value [1, 24] was 10 to 55 min, the “tachycardia reported as a side effect, patients” value ([2]; hypertensive patients on lercanidipine) was 0-9% and the “heart palpitations, patients reporting” value ([2]; patients administered lercanidipine) was 0-9%. For the same compound, the “time of peak serum/plasma concentration” value [3] was 2 to 3 h, the “Diastolic blood pressure: general differences among groups: p vs Vehicle” value [4, 7] was “p < 0.01” and the “Heart rate: general differences among groups: p vs Vehicle” value [4, 7] was “p < 0.05”. The “Systolic blood pressure: general differences among groups: p vs Vehicle” value [4, 7] was “ns”, the “effect on heart rate (in words)” value ([4]; lercanidipine 10 μg/kg, valsartan 30 μg/kg i.v., alone or together) was “positive chronotropic effect” and the “time of statistically significant decrease in diastolic blood pressure after administration” value [4, 24] was 5 to 55 min.
